Measurements taken from patent US20020127202A1, “Compounds and compositions for delivering active agents” (Emisphere Technologies, Inc., priority 1996, published 2002).
Where two headings read alike, the source gives them in different places. Each block holds one compound with its values, some of them ahead of it.

Tests used:
[1] = In vivo delivery of heparin by oral administration in rats (APTT)
Experimental: In a test tube, 900 mg of carrier were dissolved in 3 mL of propylene glycol, and 0.299 g of sodium heparin was dissolved in 3 mL of water. The solutions were mixed by vortex. Sodium hydroxide (10 M) was added to the resulting mixture until a solution was obtained. The pH was then adjusted to 7.4+/−0.5 with concentrated hydrochloric acid, and the final solution was sonicated at for 30 minutes.
A group of fasted, conscious rats were administered the dosing compositions by oral gavage. Blood samples were collected by cardiac puncture following the administration of ketamine (44 mg/kg)., Heparin activity was determined by utilizing the activated partial thromboplastim time (APTT) according to the method of Henry, J. B., Clinical Diagnosis and Management by Laboratory Methods; Philadelphia, Pa.; W B Saunders (1979).
Heparin (100 mg/kg) was administered by oral gavage to rats, and heparin activity was determined according to the procedure of Example 44.

[2] = rat, in vivo, 100 mg/kg
Experimental: (§1) The delivery agents were reconstituted with distilled water and/or propylene glycol and adjusted to an apparent pH of 7.2-8.0 with either aqueous hydrochloric acid or aqueous sodium hydroxide. A stock solution of parathyroid hormone was prepared by dissolving parathyroid hormone in water. The parathyroid hormone solution was then added to the delivery agent solution. Several different delivery agent to active agent ratios were studied.
(§2) Male Sprague-Dawley rats weighing 200-250 g were fasted for 24 hours and administered ketamine (44 mg/kg) and chlorpromazine (1.5 mg/kg) 15 minutes prior to dosing. The rats were administered one of the dosing solutions described above by oral gavage or intracolonic instillation. Blood samples were collected serially from the tail artery for serum determination of parathyroid hormone concentration. Serum parathyroid hormone concentrations were quantified by a parathyroid hormone radioimmunoassay test kit.
(§3) Oral administration of solutions containing parathyroid hormone (PTH) and the non-α-amino acid delivery agents was tested in vivo in rats.

[3] = Delivery agent enhancement of rhGH bioavailability, subcutaneous administration in rats
Experimental: The delivery agents were reconstituted with distilled water and adjusted to pH 7.2-8.0 with either aqueous hydrochloric acid or aqueous sodium hydroxide. A stock solution of rhGH was prepared by mixing rhGH, D-mannitol and glycine and dissolving this mixture in 2% glycerol/water. The stock solution was then added to the delivery agent solution. Several delivery agent to active agent ratios were studied.
Male Sprague-Dawley rats weighing 200-250g were fasted for 24 hours and administered ketamine (44 mg/kg) and chlorpromazine (1.5 mg/kg) 15 minutes prior to dosing. The rats were administered one of the dosing solutions described above by subcutaneous injection, intranasal instillation, or sublingual instillation. Blood samples were collected serially from the tail artery for serum calcium concentration determination or serum rhGH concentrations. The dose of rhGH administered in these experiments was 0.1 mg/kg.
Serum rhGH concentrations were quantified by an rhGH enzyme immunoassay test kit.

[4] = In vivo delivery of salmon calcitonin in rats (serum calcium)
Experimental: 400 mg of carrier were added to 2.9 mL of 25% aqueous propylene glycol. The resultant solution was stirred, and the pH was adjusted to 7.2 with sodium hydroxide (1.0 N). Water was added to bring the total volume to […]. […] Calcitonin (10 μg) was added to the solution. The total calcitonin concentration was 2.5 μg/mL.
For each sample a group of fasted rats were anesthetized. The rats were administered the dosing composition by oral gavage, intracolonic instillation, or intraduodenal administration. Blood samples were collected serially from the tail artery. Serum calcium was determined by testing with a Calcium Kit (Sigma Chemical Company, St. Louis, Mo., USA).

[5] = Delivery agent enhancement of salmon calcitonin bioavailability, subcutaneous administration in rats (serum calcium); format: in vivo, Male Sprague-Dawley rats; conditions: sCT 0.2 μg/kg
[6] = Delivery agent enhancement of parathyroid hormone bioavailability in rats (serum PTH radioimmunoassay)
Experimental: as §1, §2, §3

[7] = In vivo delivery of rhGH in rats (serum rhGH by ELISA); conditions: oral, no carrier (0 mg/kg), rhGH dose 6 mg/kg
Experimental: Dosing compositions were prepared by mixing the modified amino acids and recombinant human growth hormone (rhGH) as listed in Table 1 below in a phosphate buffer solution at a pH of about 7-8.
Rats were administered the dosing composition by sublingual, oral gavage, intraduodenal administration, or colonic administration. Delivery was evaluated by using an ELISA assay for rhGH from Medix Biotech, Inc. For intracolonic administration, a sample was prepared and dosed to fasted rats at 25 mg/kg of carrier in a buffered solution containing propylene glycol (0-50%) and 1 mg/kg rhGH.

[8] = In vivo delivery of interferon α2b by intracolonic administration in rats (ELISA); conditions: carrier dose 100 mg/kg, interferon dose 250 μg/kg
Experimental: Propylene glycol (0-25%) was added as a solubilizing agent, if necessary.
Rats were administered the dosing composition by oral gavage, intraduodenal administration, or intracolonic administration.

[9] = subcutaneous, delivery agent dose 1.0 mg/kg, rhGH 0.1 mg/kg
[10] = carrier dose 300 mg/kg, heparin dose 100 mg/kg
[11] = intracolonic, carrier dose 100 mg/kg, PTH dose 25 μg/kg
[12] = subcutaneous, delivery agent dose 2.5 mg/kg, rhGH 0.1 mg/kg

Compound: O=C(O)CCCCCCCCCNC(=O)c1ccccc1O [Compound XXXI]
Mean Peak APTT ([1]; carrier dose 50 mg/kg, heparin dose 10 mg/kg): 50.85 ± 9.1 s
Mean Peak APTT ([1]; carrier dose 50 mg/kg, heparin dose 25 mg/kg): 127.56 ± 22.97 s

Compound: COc1ccccc1/C=C/C(=O)Nc1ccc(CCCC(=O)O)cc1 [LXXXIX]
Peak Serum [PTH] [2]: 70 ± 15 pg/mL

Peak Serum [rhGH] [3, 9]: 25 ± 3 ng/mL
Compound: O=C(O)CCCCCCCNC(=O)c1cccc([N+](=O)[O-])c1 [Compound CXV]

Compound: O=C(O)CCCNC(=O)C1CCCCC1 [Compound V]
Maximum Decrease in Serum Calcium ([4]; oral, carrier dose 400 mg/kg, calcitonin dose 10 μg/kg): 18.35 +/− 2.87 % below baseline
Mean Peak APTT [1, 10]: 87.4 ± 34.1 s

Peak Serum [PTH] [2]: 145 ± 25 pg/mL
Compound: CN(C)c1cccc(C(=O)Nc2ccc(CCCC(=O)O)cc2)c1 [LVIII]

Peak Serum [PTH] [6, 11]: 65 ± 15 pg/mL
Compound: O=C(O)CCCCCCCNC(=O)c1ccccc1Br [CXIV]
Percent Decrease in Serum Calcium ([5]; delivery agent dose 20 μg/kg): 20 ± 3%

Peak Serum [PTH] [2]: 115 ± 20 pg/mL
Compound: O=C(O)CCCc1ccc(NC(=O)CCOc2ccccc2)cc1 [CVIII]

Peak Serum [rhGH] [3, 12]: 16 ± 2 ng/mL
Compound: O=C(O)CCCCCCNC(=O)c1ccccc1O [CXI]
Percent Decrease in Serum Calcium ([5]; delivery agent dose 20 μg/kg): 21 ± 4%

Compound: rhGH: recombinant human growth hormone, active agent dosed alone (Comparative Examples 5A, 16A)
Peak Serum [rhGH] ([3]; no delivery agent (0.0 mg/kg), rhGH alone): 4 ± 2 ng/mL
Mean Peak Serum Levels of rhGH [7]: <10 ± 10 ng/mL

Peak Serum [rhGH] [3, 9]: 22 ± 3 ng/mL
Peak Serum [rhGH] [3, 12]: 25 ± 5 ng/mL
Peak Serum [rhGH] ([3]; subcutaneous, delivery agent dose 25 mg/kg, rhGH 0.1 mg/kg): 30 ± 6 ng/mL
Peak Serum [PTH] [6, 11]: 130 ± 20 pg/mL
Peak Serum [PTH] ([6]; oral, carrier dose 250 mg/kg, PTH dose 25 μg/kg): 20 ± 6 pg/mL
Peak Serum [PTH] ([6]; oral, carrier dose 250 mg/kg, PTH dose 100 μg/kg): 75 ± 25 pg/mL
Compound: O=C(O)CCCCCCCNC(=O)c1ccccc1O [CXXIII]
Percent Decrease in Serum Calcium ([5]; delivery agent dose 2 μg/kg): 17 ± 3%
Percent Decrease in Serum Calcium ([5]; delivery agent dose 20 μg/kg): 25 ± 4%
Percent Decrease in Serum Calcium ([5]; delivery agent dose 200 μg/kg): 25 ± 5%
Percent Decrease in Serum Calcium ([5]; delivery agent dose 2000 μg/kg): 26 ± 5%

Compound: O=C(O)CCCCCCCNC(=O)c1ccccc1O [Compound XIX]
Maximum Decrease in Serum Calcium ([4]; intracolonic, carrier dose 10 mg/kg, calcitonin dose 3 μg/kg): 26.49 +/− 12.3 % below baseline
Maximum Decrease in Serum Calcium ([4]; oral, carrier dose 200 mg/kg, calcitonin dose 7.5 μg/kg): 25.48 +/− 4.7 % below baseline
Mean Peak APTT [1, 10]: 119.99 ± 56.3 s

Compound: COc1ccccc1/C=C/C(=O)Nc1ccc(CCC(=O)O)cc1 [Compound LXXXVI]
Peak Serum [PTH] [2]: 40 ± 12 pg/mL

Mean Peak Serum Levels of Interferon [8]: 4238 ± 2789 pg/mL
Compound: O=C(O)CCCCCCCNC(=O)/C=C/c1ccccc1O [Compound XXI]

Compound: O=C(O)CCCNC(=O)C1CCCCCC1 [Compound II]
Mean Peak APTT [1, 10]: 25.45 ± 2.8 s

Compound: CCC(C(=O)NCCCC(=O)O)C1CCCCC1 (stereo not shown) [Compound III]
Mean Peak APTT [1, 10]: 38.64 ± 17 s
